Measured values reported in US20170071976A1, “PHARMACEUTICAL SOLUTION HAVING ANTI-TUMOR EFFECT-ENHANCING AND TOXICITY-REDUCING EFFECT, AND PHARMACEUTICAL COMPOSITION COMPRISING SAME” (priority 2014, published 2017).

Columns and labels:
[1] = test system: human colon cancer HCT-116 cells (a moderately drug resistant strain); assay: MTT assay: deuterium oxide in combination with 5-FU; assay type: cell-based; details: read-out: Inhibition of cell growth (%) (5-FU alone)
Method: In vitro inhibition of growth of human colon cancer HCT-116 cells (a moderately drug resistant strain) by deuterium oxide in combination with 5-fluorouracil (5-FU)
Method: 5-fluorouracil was diluted with the sodium chloride deuterium oxide solution according to the concentrations shown in Table 2 and added to a cell culture plate; the in vitro inhibition of tumor cell growth was measured by the MTT assay in the same manner as Example 14.
The assay was repeated one more time.

[2] = test system: malignant tumors; details: as a single drug in clinical settings; cited from earlier work
[3] = test system: Ehrlich ascites tumor (EAC); assay: Survival of Ehrlich ascites tumor-bearing mice, intraperitoneal perfusion (lavage) with deuterium oxide and 5-FU; assay type: in vivo, ICR mice; details: i.p., 10 days; for MST: control 14.1 ± 1.9
Method: Studying 1: Efficacy of intraperitoneal perfusion (lavage) with deuterium oxide in combination with 5-fluorouracil on Ehrlich ascites tumor (EAC)-bearing mice.
Laboratory animal: 4 to 5 week-aged male ICR mice, provided by Shanghai SIPPR-BK Laboratory Animal Co. Ltd.
1. Modeling: EAC ascitic fluid was taken and adjusted to 1×10^7 cells/ml, which was inoculated into the peritoneal cavity of mice at 0.1 ml/mouse. 2. Grouping and dosing: the animals were randomized 3 days after inoculation, and meanwhile drugs were given to mice in each group, following the dosing scheme shown in Table 10.
In Table 10, “Sodium chloride deuterium oxide solution 0.1 ml/animal+5-FU 20 mg/kg” means that each mouse was given 0.1 ml sodium chloride deuterium oxide solution, in which 5-FU had been dissolved to make a dose of 20 mg/kg.
After the dosing, ascitic fluid was taken from 3 mice from each group, the volume of the ascitic fluid was measured, the number of tumor cells in the ascitic fluid was counted, and the rest of animals were continuously fed. Median survival time (MST) was recorded for animals in each group to evaluate the survival time for each group.
The comparison between the treatment group and the control group was expressed by T/C (%) which is calculated by the following equation: […]
T MST: MST of the treatment group; C MST: MST of the negative control group.
The evaluation criterion uses 125% as a cut-off threshold. When T/C %≧125%, effective, otherwise ineffective.
The mean value was expressed in X±SD. Inter-group analysis was statistically performed with t test. The results were statistically analyzed using SPSS (Statistical Package for the Social Science) 17.0.

[4] = test system: human lung cancer A549 cells; assay: Cell cycle by PI single staining (flow cytometry); assay type: cell-based; details: deuterium oxide 30% v/v, 72 hours
Method: Effect of deuterium oxide on the cell cycle of human lung cancer A549 cells and human colon cancer HCT-116 cells Human lung cancer A549 cells and human colon cancer HCT-116 cells were provided by NANJING […] BIOTECH. CO., LTD., and cultured in an incubator at 37° C., 5% CO2 and saturated humidity. A KGA511 Cell cycle assay kit was provided by NANJING […] BIOTECH. CO., LTD. The flow cytometer was FACS Calibur provided by Becton-Dickinson, US. […] The cell suspension was centrifuged at 800 to 1,000 rpm for 5 min, and the supernatant was discarded; 1.4. A complete culture medium was added to the cell pellet which was well mixed by gentle pipetting, the cell suspension was transferred to a culture flask, and the cells were cultured by supplementing culture medium. […] When all the cells became round, an equal volume of culture medium containing serum was added to cease the digestion; 2.4. The cells were blown by pipetting to suspend, then drawn into a 15 ml centrifugal tube, and centrifuged at 1000 rpm for 5 min; 2.5. […] 1. Cells growing in the exponential phase were digested and inoculated to a 6-well plate; on the next day, after the cells attached to the wall, cell culture media containing corresponding test drugs were added according to different groups, and a negative control group was also set; 2. […] The cells were washed with PBS once (centrifuged at 2,000 rpm for 5 min), and 5×10^5 cells were collected; 4. […] In a detection apparatus, red fluorescence with an excitation wavelength of 488 nm was recorded.

[5] = test system: adult human; assay: Theoretical extrapolation of the toxic deuterium oxide body content to an adult human; details: adult human of 60 kg body weight
From the text: Deuterium oxide (heavy water, D2O, Mw: 20.03, CAS No. 7789-20-0) can be isolated from seawater. A normal body of adult human contains about 5 g deuterium oxide. […] Based on this experimental result, theoretically, assuming the body weight of an adult human is 60 kg, deuterium oxide that reaches 18 kg in the body starts to cause toxicity. However, it is actually impossible for a human body to have 18 kg deuterium oxide. […] Therefore, deuterium oxide should be a non-toxic substance [D. M. Czajka: Am. J. Physiol.

Compound | inhibition at 0.02 µg/mL ([1]; 5-FU final conc. 0.02 μg/ml) | inhibition at 0.05 µg/mL ([1]; 5-FU final conc. 0.05 μg/ml) | inhibition at 0.1 µg/mL ([1]; 5-FU final conc. 0.10 μg/ml) | inhibition at 0.2 µg/mL ([1]; 5-FU final conc. 0.20 μg/ml) | inhibition at 0.39 µg/mL ([1]; 5-FU final conc. 0.39 μg/ml) | inhibition at 0.78 µg/mL ([1]; 5-FU final conc. 0.78 μg/ml) | inhibition at 1.56 µg/mL ([1]; 5-FU final conc. 1.56 μg/ml) | inhibition at 3.13 µg/mL ([1]; 5-FU final conc. 3.13 μg/ml) | inhibition at 6.25 µg/mL ([1]; 5-FU final conc. 6.25 μg/ml) | inhibition at 12.5 µg/mL ([1]; 5-FU final conc. 12.5 μg/ml) | overall response rate [2] | T/C(%) ([3]; 5-FU 20 mg/kg in NS) | MST ([3]; 5-FU 20 mg/kg in NS) | T/C(%) ([3]; 5-FU 30 mg/kg in NS) | MST ([3]; 5-FU 30 mg/kg in NS) | G2 Phase ([4]; control 6.21 ± 4.52) | S Phase ([4]; control 13.50 ± 1.33) | G1 Phase ([4]; control 80.29 ± 5.02) | amount in the body that starts to cause toxicity [5]
O=c1[nH]cc(F)c(=O)[nH]1 [Example 5-FU, 5-fluorouracil] | 2.18% | 2.55% | 2.3% | 3.24% | 6.98% | 9.82% | 11% | 18.6% | 26.5% | 35.3% | 10% | 154.6% | 21.8 ± 2.9 days | 158.1% | 22.3 ± 4.9 days |  |  |  | 
[2H]O[2H] [Deuterium oxide] |  |  |  |  |  |  |  |  |  |  |  |  |  |  |  | 13.47 ± 3.94% | 0.31 ± 0.28% | 86.23 ± 3.69% | 18 kg
